Data from paper PMC5218480 (PLoS ONE, 2017).

System: MV-4-11 cells
Assay: Gene expression microarray analysis (Affymetrix PrimeView) and GSEA
Type: cell-based, human
Design: RFU PODN (11730768_x_at) / Fold change /veh PODN (11730768_x_at) / RFU LINC00158 (11744669_a_at) / Fold change /veh LINC00158 (11744669_a_at) / RFU DUSP10 (11751237_a_at) / Fold change /veh DUSP10 (11751237_a_at) / RFU ID3 (11757404_x_at) / Fold change /veh ID3 (11757404_x_at) / RFU PLEKHG5 (11737974_s_at) / Fold change /veh PLEKHG5 (11737974_s_at) / RFU LRRC4B (11730491_at) / Fold change /veh LRRC4B (11730491_at) / RFU GIMAP4 (11747438_a_at) / Fold change /veh GIMAP4 (11747438_a_at) / RFU KRT8 (11758183_x_at) / Fold change /veh KRT8 (11758183_x_at) / RFU CNN1 (11734310_a_at) / Fold change /veh CNN1 (11734310_a_at) / RFU VPS37D (11726825_at) / Fold change /veh VPS37D (11726825_at) / RFU C10orf10 (11716522_x_at) / Fold change /veh C10orf10 (11716522_x_at) / RFU KIR2DL2 /// KIR2DL4 /// KIR2DL5A /// KIR2DL5B /// KIR2DS1 /// KIR2DS2 /// KIR2DS3 /// KIR2DS4 /// KIR3DL3 /// KIR3DL3 /// KIR3DS1 (11738374_at) / Fold change /veh KIR2DL2 /// KIR2DL4 /// KIR2DL5A /// KIR2DL5B /// KIR2DS1 /// KIR2DS2 /// KIR2DS3 /// KIR2DS4 /// KIR3DL3 /// KIR3DL3 /// KIR3DS1 (11738374_at) / RFU C1QL1 (11718748_at) / Fold change /veh C1QL1 (11718748_at) / RFU TMPRSS4 (11747572_a_at) / Fold change /veh TMPRSS4 (11747572_a_at) / RFU HAMP (11756126_x_at) / Fold change /veh HAMP (11756126_x_at) / RFU RNFT2 (11725882_a_at) / Fold change /veh RNFT2 (11725882_a_at) / RFU NR4A2 (11747474_a_at) / Fold change /veh NR4A2 (11747474_a_at) / RFU ABCC12 (11746883_a_at) / Fold change /veh ABCC12 (11746883_a_at) / RFU TMEM136 (11760407_x_at) / Fold change /veh TMEM136 (11760407_x_at) / RFU CLDN22 /// WWC2 (11732394_at) / Fold change /veh CLDN22 /// WWC2 (11732394_at) / RFU HLA-DPB1 (11760878_x_at) / Fold change /veh HLA-DPB1 (11760878_x_at) / RFU SPINT1 (11716480_a_at) / Fold change /veh SPINT1 (11716480_a_at) / RFU GAP43 (11754022_s_at) / Fold change /veh GAP43 (11754022_s_at) / RFU A4GNT (11735810_at) / Fold change /veh A4GNT (11735810_at) / RFU PRB3 (11715151_x_at) / Fold change /veh PRB3 (11715151_x_at) / RFU TUBB4B (11761932_at) / Fold change /veh TUBB4B (11761932_at) / RFU CAPN14 (11732068_a_at) / Fold change /veh CAPN14 (11732068_a_at) / RFU TMCC2 (11721928_a_at) / Fold change /veh TMCC2 (11721928_a_at) / RFU IRGQ (11745062_a_at) / Fold change /veh IRGQ (11745062_a_at) / RFU FAM174B (11720279_a_at) / Fold change /veh FAM174B (11720279_a_at) / RFU TMPRSS4 (11748680_a_at) / Fold change /veh TMPRSS4 (11748680_a_at) / RFU FAM212B (11763350_a_at) / Fold change /veh FAM212B (11763350_a_at) / RFU PLEKHG5 (11743358_a_at) / Fold change /veh PLEKHG5 (11743358_a_at) / RFU ZSCAN30 (11745921_a_at) / Fold change /veh ZSCAN30 (11745921_a_at) / RFU CMKLR1 (11741424_a_at) / Fold change /veh CMKLR1 (11741424_a_at) / RFU LOC101060620 /// MAPK8IP1 (11723275_at) / Fold change /veh LOC101060620 /// MAPK8IP1 (11723275_at) / RFU SPTSSB (11747773_x_at) / Fold change /veh SPTSSB (11747773_x_at) / RFU PRSS12 (11739890_at) / Fold change /veh PRSS12 (11739890_at) / RFU BIN1 (11741810_x_at) / Fold change /veh BIN1 (11741810_x_at) / RFU WNT11 (11732464_a_at) / Fold change /veh WNT11 (11732464_a_at) / RFU C10orf10 (11716521_a_at) / Fold change /veh C10orf10 (11716521_a_at) / RFU C5orf56 (11738089_at) / Fold change /veh C5orf56 (11738089_at) / RFU CYB561 (11721691_x_at) / Fold change /veh CYB561 (11721691_x_at) / RFU ANKRD19P (11752326_a_at) / Fold change /veh ANKRD19P (11752326_a_at) / RFU OR2T12 /// OR2T33 /// OR2T8 (11738714_s_at) / Fold change /veh OR2T12 /// OR2T33 /// OR2T8 (11738714_s_at) / RFU VCAN (11748164_a_at) / Fold change /veh VCAN (11748164_a_at) / RFU JSRP1 (11732532_at) / Fold change /veh JSRP1 (11732532_at) / RFU KRTAP10-11 (11738290_x_at) / Fold change /veh KRTAP10-11 (11738290_x_at) / RFU MYO3A (11730013_a_at) / Fold change /veh MYO3A (11730013_a_at) / RFU EBF3 (11725865_a_at) / Fold change /veh EBF3 (11725865_a_at) / RFU CAMK2N1 (11719241_x_at) / Fold change /veh CAMK2N1 (11719241_x_at) / RFU C5orf56 (11738088_a_at) / Fold change /veh C5orf56 (11738088_a_at) / RFU OLFML3 (11715873_a_at) / Fold change /veh OLFML3 (11715873_a_at) / RFU LOC100653217 /// NTM (11731650_a_at) / Fold change /veh LOC100653217 /// NTM (11731650_a_at) / RFU MAPK11 (11762145_a_at) / Fold change /veh MAPK11 (11762145_a_at) / RFU FIZ1 (11724087_x_at) / Fold change /veh FIZ1 (11724087_x_at) / RFU OASL (11726364_x_at) / Fold change /veh OASL (11726364_x_at) / RFU SOX15 (11748057_x_at) / Fold change /veh SOX15 (11748057_x_at) / RFU CD79A (11719716_a_at) / Fold change /veh CD79A (11719716_a_at) / RFU HIST1H1D (11736915_at) / Fold change /veh HIST1H1D (11736915_at) / RFU CASKIN2 (11723855_a_at) / Fold change /veh CASKIN2 (11723855_a_at) / RFU LOC730098 (11760151_x_at) / Fold change /veh LOC730098 (11760151_x_at) / RFU OR4N2 (11742367_at) / Fold change /veh OR4N2 (11742367_at) / RFU PRRT2 (11749266_a_at) / Fold change /veh PRRT2 (11749266_a_at) / RFU SNX32 (11753110_a_at) / Fold change /veh SNX32 (11753110_a_at) / RFU CDHR5 (11726645_a_at) / Fold change /veh CDHR5 (11726645_a_at) / RFU RCAN1 (11760418_a_at) / Fold change /veh RCAN1 (11760418_a_at) / RFU FAM167A (11723789_a_at) / Fold change /veh FAM167A (11723789_a_at) / RFU FAM26E (11764081_at) / Fold change /veh FAM26E (11764081_at) / RFU ISYNA1 (11749810_s_at) / Fold change /veh ISYNA1 (11749810_s_at) / RFU ACY1 (11761880_at) / Fold change /veh ACY1 (11761880_at) / RFU 11764098_at / Fold change /veh 11764098_at / RFU SAMD14 (11745864_x_at) / Fold change /veh SAMD14 (11745864_x_at) / RFU NPB (11741838_a_at) / Fold change /veh NPB (11741838_a_at) / RFU TMPRSS6 (11731388_a_at) / Fold change /veh TMPRSS6 (11731388_a_at) / RFU KRTAP10-2 (11738614_at) / Fold change /veh KRTAP10-2 (11738614_at) / RFU ARHGAP8 /// PRR5-ARHGAP8 (11727945_x_at) / Fold change /veh ARHGAP8 /// PRR5-ARHGAP8 (11727945_x_at) / RFU KRTAP5-7 /// NADSYN1 (11734609_at) / Fold change /veh KRTAP5-7 /// NADSYN1 (11734609_at) / RFU RASL12 (11751679_a_at) / Fold change /veh RASL12 (11751679_a_at) / RFU CDKN2B (11736163_a_at) / Fold change /veh CDKN2B (11736163_a_at) / RFU PRF1 (11729649_at) / Fold change /veh PRF1 (11729649_at) / RFU, ZNF638 /// ZNF638-IT1 / Fold change vs veh, ZNF638 /// ZNF638-IT1 / RFU, PANK3 / Fold change vs veh, PANK3 / RFU, SH3YL1 / Fold change vs veh, SH3YL1 / RFU, ZEB2 / Fold change vs veh, ZEB2 / RFU, NRIP1 / Fold change vs veh, NRIP1 / RFU, PTTG1IP / Fold change vs veh, PTTG1IP / RFU, CAPN2 / Fold change vs veh, CAPN2 / RFU, MED14 / Fold change vs veh, MED14 / RFU, SNORA58 / Fold change vs veh, SNORA58 / RFU, C1orf63 / Fold change vs veh, C1orf63 / RFU, LRRFIP1 / Fold change vs veh, LRRFIP1 / RFU, NDUFAF7 / Fold change vs veh, NDUFAF7 / RFU, SLC12A2 / Fold change vs veh, SLC12A2 / RFU, IBTK / Fold change vs veh, IBTK / RFU, ESF1 / Fold change vs veh, ESF1 / Fold change vs veh, TMEM50B / RFU, TAOK1 / Fold change vs veh, TAOK1 / RFU, ACBD3 / Fold change vs veh, ACBD3 / RFU, TMA16 / Fold change vs veh, TMA16 / RFU, RWDD3 / Fold change vs veh, RWDD3 / RFU, BCAT1 / Fold change vs veh, BCAT1 / RFU, EDEM3 / Fold change vs veh, EDEM3 / RFU, TMEM33 / Fold change vs veh, TMEM33 / RFU, WDR75 / Fold change vs veh, WDR75 / RFU, AHCTF1 / Fold change vs veh, AHCTF1 / RFU, TFRC / Fold change vs veh, TFRC / RFU, ZDHHC17 / Fold change vs veh, ZDHHC17 / RFU, NOM1 / Fold change vs veh, NOM1 / RFU, ARL8B / Fold change vs veh, ARL8B / RFU, ZBTB11 / Fold change vs veh, ZBTB11 / RFU, TAMM41 / Fold change vs veh, TAMM41 / RFU, KIAA1704 /// LOC100996395 / Fold change vs veh, KIAA1704 /// LOC100996395 / RFU, ING1 / Fold change vs veh, ING1 / RFU, TRMT61B / Fold change vs veh, TRMT61B / RFU, FUBP3 / Fold change vs veh, FUBP3 / RFU, TP53 / Fold change vs veh, TP53 / RFU, TNKS2 / Fold change vs veh, TNKS2 / RFU, ZFP14 / Fold change vs veh, ZFP14 / RFU, ACTR2 / Fold change vs veh, ACTR2 / RFU, PPP3R1 / Fold change vs veh, PPP3R1 / RFU, PIK3R1 / Fold change vs veh, PIK3R1 / RFU, HNRNPA1 / Fold change vs veh, HNRNPA1 / RFU, RNF170 / Fold change vs veh, RNF170 / RFU, ZNF28 / Fold change vs veh, ZNF28 / RFU, RNGTT / Fold change vs veh, RNGTT / RFU, OGT / Fold change vs veh, OGT / RFU, BRD1 / Fold change vs veh, BRD1 / RFU, MARS / Fold change vs veh, MARS / RFU, ZNF655 / Fold change vs veh, ZNF655 / RFU, FAHD1 / Fold change vs veh, FAHD1 / RFU, BDP1 / Fold change vs veh, BDP1 / RFU, LRRCC1 / Fold change vs veh, LRRCC1 / RFU, ARID1A / Fold change vs veh, ARID1A / RFU, ZNF146 / Fold change vs veh, ZNF146 / RFU, ZNF330 / Fold change vs veh, ZNF330 / RFU, GPN3 / Fold change vs veh, GPN3 / RFU, C9orf123 / Fold change vs veh, C9orf123 / RFU, N4BP2L2 / Fold change vs veh, N4BP2L2 / RFU, ARFIP1 / Fold change vs veh, ARFIP1 / RFU, FAM179B / Fold change vs veh, FAM179B / RFU, BCL10 / Fold change vs veh, BCL10 / RFU, UHRF1BP1L / Fold change vs veh, UHRF1BP1L / RFU, BET1 / Fold change vs veh, BET1 / RFU, CNOT2 / Fold change vs veh, CNOT2 / RFU, ZNF268 / Fold change vs veh, ZNF268 / Fold change vs veh, ZNF507 / RFU, DGCR2 / Fold change vs veh, DGCR2 / RFU, WDSUB1 / Fold change vs veh, WDSUB1 / Fold change vs veh, HSP90B1 /// MIR3652 / RFU, ADSS / Fold change vs veh, ADSS / RFU, GK / Fold change vs veh, GK / RFU, ZNF148 / Fold change vs veh, ZNF148 / RFU, TAF9 / Fold change vs veh, TAF9 / RFU, SLC1A5 / Fold change vs veh, SLC1A5 / RFU, SLMO2 / Fold change vs veh, SLMO2 / RFU, ABCC4 / Fold change vs veh, ABCC4 / RFU, LOC101060439 /// RAP1B / Fold change vs veh, LOC101060439 /// RAP1B / RFU, RFX7 / Fold change vs veh, RFX7 / RFU, GTPBP10 / Fold change vs veh, GTPBP10 / RFU, CNEP1R1 / Fold change vs veh, CNEP1R1 / RFU, BIVM-ERCC5 /// ERCC5 / Fold change vs veh, BIVM-ERCC5 /// ERCC5 / RFU, ILF3 / Fold change vs veh, ILF3 / RFU 11762660_at / Fold change /veh 11762660_at / RFU VCAN (11757783_s_at) / Fold change /veh VCAN (11757783_s_at) / RFU DDX43 (11728927_at) / Fold change /veh DDX43 (11728927_at) / RFU KRT8 (11758188_x_at) / Fold change /veh KRT8 (11758188_x_at) / RFU NKD1 (11759106_at) / Fold change /veh NKD1 (11759106_at) / RFU SRD5A1 (11742802_a_at) / Fold change /veh SRD5A1 (11742802_a_at) / RFU TPSAB1 /// TPSB2 (11721975_s_at) / Fold change /veh TPSAB1 /// TPSB2 (11721975_s_at) / RFU GSTM3 (11746129_a_at) / Fold change /veh GSTM3 (11746129_a_at) / RFU IL23R (11737362_x_at) / Fold change /veh IL23R (11737362_x_at) / RFU TMEM51 (11727254_a_at) / Fold change /veh TMEM51 (11727254_a_at) / RFU PIWIL2 (11732686_x_at) / Fold change /veh PIWIL2 (11732686_x_at) / RFU ORM1 (11744905_x_at) / Fold change /veh ORM1 (11744905_x_at) / RFU CCDC152 (11743942_at) / Fold change /veh CCDC152 (11743942_at) / RFU ECM1 (11717891_a_at) / Fold change /veh ECM1 (11717891_a_at) / RFU IL23R (11748794_a_at) / Fold change /veh IL23R (11748794_a_at) / RFU TNFAIP8L3 (11732012_x_at) / Fold change /veh TNFAIP8L3 (11732012_x_at) / RFU MBOAT4 (11741988_at) / Fold change /veh MBOAT4 (11741988_at) / RFU 11764193_at / Fold change /veh 11764193_at / RFU TMEM53 (11763286_at) / Fold change /veh TMEM53 (11763286_at) / RFU MAGEB2 (11727129_at) / Fold change /veh MAGEB2 (11727129_at) / RFU TMEM200A (11744735_a_at) / Fold change /veh TMEM200A (11744735_a_at) / RFU CCDC152 (11751479_a_at) / Fold change /veh CCDC152 (11751479_a_at) / RFU FAM211A (11726209_a_at) / Fold change /veh FAM211A (11726209_a_at) / RFU RGS16 (11746705_a_at) / Fold change /veh RGS16 (11746705_a_at) / RFU VCAN (11755009_s_at) / Fold change /veh VCAN (11755009_s_at) / RFU RHOB (11743442_s_at) / Fold change /veh RHOB (11743442_s_at) / RFU RGS16 (11720943_a_at) / Fold change /veh RGS16 (11720943_a_at) / RFU RGS16 (11720944_at) / Fold change /veh RGS16 (11720944_at) / RFU, VPS4B / Fold change vs veh, VPS4B / RFU, CREB1 / Fold change vs veh, CREB1 / RFU, DNAJC13 / Fold change vs veh, DNAJC13 / RFU, GNAQ / Fold change vs veh, GNAQ / RFU, CDK5R1 / Fold change vs veh, CDK5R1 / RFU, ZRANB3 / Fold change vs veh, ZRANB3 / RFU, CUL4A / Fold change vs veh, CUL4A / RFU, CCNY / Fold change vs veh, CCNY / RFU, UFL1 / Fold change vs veh, UFL1 / RFU, COG3 / Fold change vs veh, COG3 / RFU, DIAPH2 / Fold change vs veh, DIAPH2 / RFU, SKA2 / Fold change vs veh, SKA2 / RFU, AFF3 / Fold change vs veh, AFF3 / RFU, LMF1 / Fold change vs veh, LMF1 / RFU, IPO11 / Fold change vs veh, IPO11 / RFU, DFFB / Fold change vs veh, DFFB / RFU, FOXP1 / Fold change vs veh, FOXP1 / RFU, CARD8 / Fold change vs veh, CARD8 / RFU, STRN3 / Fold change vs veh, STRN3 / RFU, ADK / Fold change vs veh, ADK / RFU, RASSF2 / Fold change vs veh, RASSF2 / RFU, WIPF1 / Fold change vs veh, WIPF1 / RFU, LARP1B / Fold change vs veh, LARP1B / RFU, RASA1 / Fold change vs veh, RASA1 / RFU, RB1 / Fold change vs veh, RB1 / RFU, PPFIA1 / Fold change vs veh, PPFIA1 / RFU, MAT2A / Fold change vs veh, MAT2A / RFU, CCT5 / Fold change vs veh, CCT5 / RFU, WDR92 / Fold change vs veh, WDR92 / RFU, CUX1 / Fold change vs veh, CUX1 / RFU, TTC7A / Fold change vs veh, TTC7A / RFU, TMEM135 / Fold change vs veh, TMEM135 / RFU, DEPTOR / Fold change vs veh, DEPTOR / RFU, CPM / Fold change vs veh, CPM / RFU, DNAJB6 / Fold change vs veh, DNAJB6 / RFU, CACNA2D3 / Fold change vs veh, CACNA2D3 / RFU, DTX4 / Fold change vs veh, DTX4 / RFU, TFCP2 / Fold change vs veh, TFCP2 / RFU, GMCL1 /// GMCL1P1 / Fold change vs veh, GMCL1 /// GMCL1P1 / RFU, AEBP2 / Fold change vs veh, AEBP2 / RFU, SNHG1 /// SNORD22 /// SNORD25 /// SNORD26 /// SNORD27 /// SNORD28 /// SNORD29 /// SNORD31 / Fold change vs veh, SNHG1 /// SNORD22 /// SNORD25 /// SNORD26 /// SNORD27 /// SNORD28 /// SNORD29 /// SNORD31 / Fold change (Aza/veh), C12orf56 (ProbeSet 11735607_a_at) / Fold change (ACY-1035/veh), C12orf56 (ProbeSet 11735607_a_at) / Fold change (Aza/veh), FGFR1OP (ProbeSet 11751329_s_at) / Fold change (ACY-1035/veh), FGFR1OP (ProbeSet 11751329_s_at) / Fold change (Aza/veh), VPS36 (ProbeSet 11739960_a_at) / Fold change (ACY-1035/veh), VPS36 (ProbeSet 11739960_a_at) / RFU SYPL1 (11715823_x_at) / Fold change /veh SYPL1 (11715823_x_at) / RFU IGFBP7 (11715501_s_at) / Fold change /veh IGFBP7 (11715501_s_at) / RFU REEP3 (11722064_at) / Fold change /veh REEP3 (11722064_at) / RFU IGLL1 (11728026_x_at) / Fold change /veh IGLL1 (11728026_x_at): dose or concentration left out as unconfirmed
Details: MV-4-11 cells, 48 hours

Nc1ccc(-c2cccs2)cc1NC(=O)c1ccc2c(c1)cc(C1CC1)n2CCN1CCOCC1 [ACY-1035]
RFU LRRC4B (11730491_at): 28.30 RFU
